Source: US8834841B2, “Imaging agents” (priority 2005, dated 2014)

Key:
Assay type in all cases: in vivo
[1] = system: DU145 Prostate Tumor Cells Implanted SC in SCID Mice; experiment: tissue distribution, DU145 tumor-bearing SCID mice
Experimental: (§1) For the in vitro amino acid uptake studies, all cells can be grown to monolayer confluency in T-175 culture flasks [Corning, Corning, N.Y.] (approx. 1×10^8 cells/flask) in Dulbecco's Modified Eagle's Medium (DMEM) [Sigma, St. Louis, Mo.] in a humidified incubator (37° C., 5% CO2/95% air). Media are supplemented with 10% fetal calf serum [Hyclone, Logan, Utah], and antibiotics (10,000 U/ml penicillin and 10 mg/ml streptomycin) (Sigma, St. Louis, Mo.). For tissue culture passage, monolayer cells are detached by gentle trypsinization, resuspended in complete media, and split 1:10 into new T-flasks. Cultures are passaged weekly, and fed fresh media every 2 to 3 days. To initiate tumor growth in SCID mice, 1×10^6 cells are injected s.c. bilaterally into the flanks (inguinal region) of the recipient animals using a 1 ml syringe with a 27 gauge needle. Ex vivo experiments can be performed with animals containing tumors weighing between 500 mg and 1 g, as estimated by caliper measurement (tumor weight=(π/6)*abc, where a, b and c are the tumor length, width and height, respectively). The compounds of the invention are further evaluated for their tumor specificity and selectivity in tumor-bearing animal models. One can evaluate and compare the transport, accumulation and tissue distribution of each compound in these in vivo animal studies. Tissue distribution of the compounds is measured in SCID mice (average weight, 20-25 g) bearing human tumors as follows. The candidate radioligands (20 uCi in 0.4 ml 0.9% NaCl) are injected into the tail vein of tumor-bearing mice. […] Tissues (blood, heart, liver, lungs, kidneys, bone, thyroid, muscle, brain and tumor) are excised, rinsed in saline, and blotted dry. The tissues are weighed, placed into 12×75 mm glass vials, the radioactivity determined with a gamma counter, and the percent dose/gram calculated. Total activities of blood and muscle are calculated by assuming that they account for 7% and 40% of the total body mass, respectively.

[2] = system: MB468 Breast Tumor Cells Implanted SC in SCID Mice; experiment: tissue distribution, MB468 tumor-bearing SCID mice
Experimental: as §1

[3] = system: U87 Glioma Tumor Cells Implanted SC in SCID Mice; experiment: tissue distribution, U87 tumor-bearing SCID mice
Experimental: as §1

NC1(C(=O)O)CCC1[18F] [Anti-R,S 2-[^18F]FACBC, (R,S) anti-1-amino-2-[^18F]fluorocyclobutyl-1-carboxylic acid]
% Dose/g blood ([1]; 15 Minutes): 2.79 % Dose/g
% Dose/g bone ([1]; 15 Minutes): 1.05 % Dose/g
% Dose/g brain ([1]; 15 Minutes): 0.16 % Dose/g
% Dose/g heart ([1]; 15 Minutes): 2.07 % Dose/g
% Dose/g kidney ([1]; 15 Minutes): 6.81 % Dose/g
% Dose/g liver ([1]; 15 Minutes): 2.32 % Dose/g
% Dose/g lung ([1]; 15 Minutes): 3.35 % Dose/g
% Dose/g muscle ([1]; 15 Minutes): 0.83 % Dose/g
% Dose/g pancreas ([1]; 15 Minutes): 29.02 % Dose/g
% Dose/g spleen ([1]; 15 Minutes): 4.37 % Dose/g
% Dose/g tumor ([1]; 15 Minutes): 2.94 % Dose/g
% Dose/g blood ([1]; 30 Minutes): 1.85 % Dose/g
% Dose/g bone ([1]; 30 Minutes): 1.62 % Dose/g
% Dose/g brain ([1]; 30 Minutes): 0.16 % Dose/g
% Dose/g heart ([1]; 30 Minutes): 1.82 % Dose/g
% Dose/g kidney ([1]; 30 Minutes): 4.47 % Dose/g
% Dose/g liver ([1]; 30 Minutes): 2.08 % Dose/g
% Dose/g lung ([1]; 30 Minutes): 2.31 % Dose/g
% Dose/g muscle ([1]; 30 Minutes): 0.99 % Dose/g
% Dose/g pancreas ([1]; 30 Minutes): 29.29 % Dose/g
% Dose/g spleen ([1]; 30 Minutes): 4.74 % Dose/g
% Dose/g tumor ([1]; 30 Minutes): 3.54 % Dose/g
% Dose/g blood ([1]; 60 Minutes): 0.80 % Dose/g
% Dose/g bone ([1]; 60 Minutes): 2.22 % Dose/g
% Dose/g brain ([1]; 60 Minutes): 0.17 % Dose/g
% Dose/g heart ([1]; 60 Minutes): 1.32 % Dose/g
% Dose/g kidney ([1]; 60 Minutes): 1.82 % Dose/g
% Dose/g liver ([1]; 60 Minutes): 1.22 % Dose/g
% Dose/g lung ([1]; 60 Minutes): 1.18 % Dose/g
% Dose/g muscle ([1]; 60 Minutes): 1.15 % Dose/g
% Dose/g pancreas ([1]; 60 Minutes): 15.00 % Dose/g
% Dose/g spleen ([1]; 60 Minutes): 2.84 % Dose/g
% Dose/g tumor ([1]; 60 Minutes): 2.56 % Dose/g
% Dose/g blood ([1]; 120 Minutes): 0.38 % Dose/g
% Dose/g bone ([1]; 120 Minutes): 0.65 % Dose/g
% Dose/g brain ([1]; 120 Minutes): 0.12 % Dose/g
% Dose/g heart ([1]; 120 Minutes): 0.82 % Dose/g
% Dose/g kidney ([1]; 120 Minutes): 0.78 % Dose/g
% Dose/g liver ([1]; 120 Minutes): 0.42 % Dose/g
% Dose/g lung ([1]; 120 Minutes): 0.45 % Dose/g
% Dose/g muscle ([1]; 120 Minutes): 0.71 % Dose/g
% Dose/g pancreas ([1]; 120 Minutes): 5.92 % Dose/g
% Dose/g spleen ([1]; 120 Minutes): 0.87 % Dose/g
% Dose/g tumor ([1]; 120 Minutes): 1.84 % Dose/g
% Dose/g blood ([2]; 15 Minutes): 3.26 % Dose/g
% Dose/g bone ([2]; 15 Minutes): 1.46 % Dose/g
% Dose/g brain ([2]; 15 Minutes): 0.23 % Dose/g
% Dose/g heart ([2]; 15 Minutes): 2.21 % Dose/g
% Dose/g kidney ([2]; 15 Minutes): 8.62 % Dose/g
% Dose/g liver ([2]; 15 Minutes): 2.51 % Dose/g
% Dose/g lung ([2]; 15 Minutes): 4.02 % Dose/g
% Dose/g muscle ([2]; 15 Minutes): 1.29 % Dose/g
% Dose/g pancreas ([2]; 15 Minutes): 36.85 % Dose/g
% Dose/g spleen ([2]; 15 Minutes): 4.47 % Dose/g
% Dose/g tumor ([2]; 15 Minutes): 2.71 % Dose/g
% Dose/g blood ([2]; 30 Minutes): 2.39 % Dose/g
% Dose/g bone ([2]; 30 Minutes): 1.31 % Dose/g
% Dose/g brain ([2]; 30 Minutes): 0.20 % Dose/g
% Dose/g heart ([2]; 30 Minutes): 1.89 % Dose/g
% Dose/g kidney ([2]; 30 Minutes): 6.49 % Dose/g
% Dose/g liver ([2]; 30 Minutes): 2.49 % Dose/g
% Dose/g lung ([2]; 30 Minutes): 2.98 % Dose/g
% Dose/g muscle ([2]; 30 Minutes): 1.12 % Dose/g
% Dose/g pancreas ([2]; 30 Minutes): 35.25 % Dose/g
% Dose/g spleen ([2]; 30 Minutes): 4.11 % Dose/g
% Dose/g tumor ([2]; 30 Minutes): 2.83 % Dose/g
% Dose/g blood ([2]; 60 Minutes): 1.00 % Dose/g
% Dose/g bone ([2]; 60 Minutes): 0.92 % Dose/g
% Dose/g brain ([2]; 60 Minutes): 0.15 % Dose/g
% Dose/g heart ([2]; 60 Minutes): 1.27 % Dose/g
% Dose/g kidney ([2]; 60 Minutes): 2.41 % Dose/g
% Dose/g liver ([2]; 60 Minutes): 1.29 % Dose/g
% Dose/g lung ([2]; 60 Minutes): 1.37 % Dose/g
% Dose/g muscle ([2]; 60 Minutes): 1.07 % Dose/g
% Dose/g pancreas ([2]; 60 Minutes): 19.20 % Dose/g
% Dose/g spleen ([2]; 60 Minutes): 3.05 % Dose/g
% Dose/g tumor ([2]; 60 Minutes): 2.19 % Dose/g
% Dose/g blood ([2]; 120 Minutes): 0.35 % Dose/g
% Dose/g bone ([2]; 120 Minutes): 0.71 % Dose/g
% Dose/g brain ([2]; 120 Minutes): 0.13 % Dose/g
% Dose/g heart ([2]; 120 Minutes): 0.69 % Dose/g
% Dose/g kidney ([2]; 120 Minutes): 0.89 % Dose/g
% Dose/g liver ([2]; 120 Minutes): 0.56 % Dose/g
% Dose/g lung ([2]; 120 Minutes): 0.51 % Dose/g
% Dose/g muscle ([2]; 120 Minutes): 0.66 % Dose/g
% Dose/g pancreas ([2]; 120 Minutes): 7.96 % Dose/g
% Dose/g spleen ([2]; 120 Minutes): 1.01 % Dose/g
% Dose/g tumor ([2]; 120 Minutes): 1.44 % Dose/g
% Dose/g blood ([3]; 15 Minutes): 3.50 % Dose/g
% Dose/g bone ([3]; 15 Minutes): 2.10 % Dose/g
% Dose/g brain ([3]; 15 Minutes): 0.28 % Dose/g
% Dose/g heart ([3]; 15 Minutes): 2.59 % Dose/g
% Dose/g kidney ([3]; 15 Minutes): 9.21 % Dose/g
% Dose/g liver ([3]; 15 Minutes): 3.43 % Dose/g
% Dose/g lung ([3]; 15 Minutes): 4.08 % Dose/g
% Dose/g muscle ([3]; 15 Minutes): 1.45 % Dose/g
% Dose/g pancreas ([3]; 15 Minutes): 49.78 % Dose/g
% Dose/g spleen ([3]; 15 Minutes): 6.63 % Dose/g
% Dose/g tumor ([3]; 15 Minutes): 6.48 % Dose/g
% Dose/g blood ([3]; 30 Minutes): 2.17 % Dose/g
% Dose/g bone ([3]; 30 Minutes): 1.66 % Dose/g
% Dose/g brain ([3]; 30 Minutes): 0.22 % Dose/g
% Dose/g heart ([3]; 30 Minutes): 2.00 % Dose/g
% Dose/g kidney ([3]; 30 Minutes): 5.08 % Dose/g
% Dose/g liver ([3]; 30 Minutes): 2.58 % Dose/g
% Dose/g lung ([3]; 30 Minutes): 2.82 % Dose/g
% Dose/g muscle ([3]; 30 Minutes): 1.12 % Dose/g
% Dose/g pancreas ([3]; 30 Minutes): 41.30 % Dose/g
% Dose/g spleen ([3]; 30 Minutes): 5.11 % Dose/g
% Dose/g tumor ([3]; 30 Minutes): 5.44 % Dose/g
% Dose/g blood ([3]; 60 Minutes): 0.81 % Dose/g
% Dose/g bone ([3]; 60 Minutes): 1.21 % Dose/g
% Dose/g brain ([3]; 60 Minutes): 0.17 % Dose/g
% Dose/g heart ([3]; 60 Minutes): 1.13 % Dose/g
% Dose/g kidney ([3]; 60 Minutes): 2.00 % Dose/g
% Dose/g liver ([3]; 60 Minutes): 1.22 % Dose/g
% Dose/g lung ([3]; 60 Minutes): 1.15 % Dose/g
% Dose/g muscle ([3]; 60 Minutes): 1.10 % Dose/g
% Dose/g pancreas ([3]; 60 Minutes): 17.78 % Dose/g
% Dose/g spleen ([3]; 60 Minutes): 3.02 % Dose/g
% Dose/g tumor ([3]; 60 Minutes): 3.61 % Dose/g
% Dose/g blood ([3]; 120 Minutes): 0.46 % Dose/g
% Dose/g bone ([3]; 120 Minutes): 1.20 % Dose/g
% Dose/g brain ([3]; 120 Minutes): 0.16 % Dose/g
% Dose/g heart ([3]; 120 Minutes): 0.89 % Dose/g
% Dose/g kidney ([3]; 120 Minutes): 1.10 % Dose/g
% Dose/g liver ([3]; 120 Minutes): 0.75 % Dose/g
% Dose/g lung ([3]; 120 Minutes): 0.64 % Dose/g
% Dose/g muscle ([3]; 120 Minutes): 0.99 % Dose/g
% Dose/g pancreas ([3]; 120 Minutes): 10.20 % Dose/g
% Dose/g spleen ([3]; 120 Minutes): 1.48 % Dose/g
% Dose/g tumor ([3]; 120 Minutes): 2.73 % Dose/g
